Where two headings read alike, the source gives them in different places.
Assays:
[1] = Hydrolysis Assay of Example A2, Condition 1 (SGF with pepsin, pH 1.5, 37° C.); assay type: physicochemical; details: SGF with pepsin pH 1.5, 37° C., 0.5 mM
[2] = assay type: physicochemical; details: DI water, 25° C., 0.5 mM
[3] = 5 µM
[4] = 5 µM; remark: listed apart in the source
[5] = Plasma Stability Assay of Example A3, mouse plasma; details: % of prodrug compound remaining, 37° C.
[6] = Plasma Stability Assay of Example A3, human plasma; details: % of prodrug compound remaining, 37° C.

Compound	Condition 1 Conversion (%) ([1]; time 1 min)	Condition 1 Conversion (%) ([1]; time 5 min)	Condition 1 Conversion (%) ([1]; time 30 min)	Condition 1 Conversion (%) ([1]; time 1 h)	Condition 1 Conversion (%) ([1]; time 4 h)	Condition 1 Conversion (%) ([1]; time 24 h)	Condition 2 Conversion (%) ([2]; time 1 min)	Condition 2 Conversion (%) ([2]; time 5 min)	Condition 2 Conversion (%) ([2]; time 30 min)	Condition 2 Conversion (%) ([2]; time 1 h)	Condition 2 Conversion (%) ([2]; time 4 h)	Condition 2 Conversion (%) ([2]; time 24 h)	Rat Plasma Prodrug (%) ([3]; 0 min)	Rat Plasma Prodrug (%) ([3]; 10 min)	Rat Plasma Prodrug (%) ([3]; 30 min)	Rat Plasma Prodrug (%) ([3]; 60 min)	Rat Plasma Prodrug (%) ([3]; 120 min)	Rat Plasma Prodrug (%) ([3]; 240 min)	Human Plasma Prodrug (%) ([4]; 0 min)	Human Plasma Prodrug (%) ([4]; 10 min)	further results
COc1ccc([C@]23CCN(C)[C@H]2CC2(CC3)OCC(COc3ccccc3OC)O2)cc1OC (stereo partly drawn) [Compound 216, (3′aS,7′aS)-3′a-(3,4-dimethoxyphenyl)-4-[(2-methoxyphenoxy)methyl]-1′-methyl-spiro[1,3-dioxolane-2,6′-2,3,4,5,7,7a-hexahydroindole]]	0	0	0	0	0	0	0	0	0	0	0	0									
COc1ccc([C@@]23CCC(=NNC(=O)c4ccc(F)cc4)C[C@@H]2N(C)CC3)cc1OC [Compound 220, N-[[(3aS)-3a-(3,4-dimethoxyphenyl)-1-methyl-2,3,4,5,7,7a-hexahydroindol-6-ylidene]amino]-4-fluoro-benzamide]							20.02	21.53	22.27	55.36	88.25	89.93									
COc1ccc([C@@]23CCC(=NNC(=O)CCCC(=O)O)C[C@@H]2N(C)CC3)cc1OC [Compound 246, 5-(2-((3aS,7aS)-3a-(3,4-dimethoxyphenyl)-1-methyloctahydro-6H-indol-6-ylidene)hydrazineyl)-5-oxopentanoic acid]	100	100	100	100	100	100	40	50	60	75	100	100									
CCCCC(=O)OC1=C[C@@H]2N(C)CC[C@]2(c2ccc(OC)c(OC)c2)CC1 [Compound 268, N-[[(3aS,7aS)-3a-(3,4-dimethoxyphenyl)-1-methyl-3,4,5,7a-tetrahydro-2H-indol-6-yl] pentanoate]	0	0	0	0	0	0	0	0	0	0	0	0									
COc1ccc([C@@]23CC/C(=N/NC(=O)Nc4ccccc4Cl)C[C@@H]2N(C)CC3)cc1OC [Compound 270, 1-[(Z)—[(3aS,7aS)-3a-(3,4-dimethoxyphenyl)-1-methyl-2,3,4,5,7,7a-hexahydroindol-6-ylidene]amino]-3-(2-chlorophenyl)urea]					1	1					1	1									
COc1ccc([C@]23CCN(C)[C@H]2CC2(CC3)OCC(C34CC5CC(CC(C5)C3)C4)O2)cc1OC (stereo partly drawn) [Compound 281, (3′aS,7′aS)-4-(1-adamantyl)-3′a-(3,4-dimethoxyphenyl)-1′-methyl-spiro[1,3-dioxolane-2,6′-2,3,4,5,7,7a-hexahydroindole]]	0	0	0	0	0	0	0	0	0	0	0	0									
COc1ccc([C@]23CCN(C)[C@H]2CC2(CC3)Oc3ccccc3O2)cc1OC [Compound 300, (3′aS,7′aS)-3′a-(3,4-dimethoxyphenyl)-1′-methyl-spiro[1,3-benzodioxole-2,6′-2,3,4,5,7,7a-hexahydroindole]]	0	0	0	0	0	0	0	0	0	0	0	0									
COc1ccc([C@@]23CCC(OC(=O)c4ccc(C(C)C)cc4)=C[C@@H]2N(C)CC3)cc1OC [Compound 371, (3aS,7aS)-3a-(3,4-dimethoxyphenyl)-1-methyl-2,3,3a,4,5,7a-hexahydro-1H-indol-6-yl 4-isopropylbenzoate]													100.0	5.0	0.2	0.1	0.0	0.0	100.0	>99	Human Plasma Prodrug (%) ([4]; 30 min): 94.4%; Human Plasma Prodrug (%) ([4]; 60 min): 90.7%; Human Plasma Prodrug (%) ([4]; 120 min): 91.3%; Human Plasma Prodrug (%) ([4]; 240 min): 78.0%; Mouse Plasma Prodrug (%) ([5]; 0.0 min): 100%; Mouse Plasma Prodrug (%) ([5]; 15 min): 10%; Mouse Plasma Prodrug (%) ([5]; 30 min): 0%; Mouse Plasma Prodrug (%) ([5]; 60 min): 0%; Mouse Plasma Prodrug (%) ([5]; 120 min): 0%; Mouse Plasma Prodrug (%) ([5]; 240 min): 0%; Human Plasma Prodrug (%) ([6]; 0.0 min): 100%; Human Plasma Prodrug (%) ([6]; 15 min): 99%; Human Plasma Prodrug (%) ([6]; 30 min): 92%; Human Plasma Prodrug (%) ([6]; 60 min): 87%; Human Plasma Prodrug (%) ([6]; 120 min): 78%; Human Plasma Prodrug (%) ([6]; 240 min): 27%
COc1ccc([C@@]23CCC(OC(=O)c4c(C)cccc4C)=C[C@@H]2N(C)CC3)cc1OC [Compound 372, (3aS,7aS)-3a-(3,4-dimethoxyphenyl)-1-methyl-2,3,3a,4,5,7a-hexahydro-1H-indol-6-yl 2,6-dimethylbenzoate]													100.0	>99	>99	>99	98.4	>99	100.0	>99	Human Plasma Prodrug (%) ([4]; 30 min): >99%; Human Plasma Prodrug (%) ([4]; 60 min): >99%; Human Plasma Prodrug (%) ([4]; 120 min): >99%; Human Plasma Prodrug (%) ([4]; 240 min): >99%; Mouse Plasma Prodrug (%) ([5]; 0.0 min): 100%; Mouse Plasma Prodrug (%) ([5]; 15 min): 92%; Mouse Plasma Prodrug (%) ([5]; 30 min): 91%; Mouse Plasma Prodrug (%) ([5]; 60 min): 88%; Mouse Plasma Prodrug (%) ([5]; 120 min): 73%; Mouse Plasma Prodrug (%) ([5]; 240 min): 64%; Human Plasma Prodrug (%) ([6]; 0.0 min): 100%; Human Plasma Prodrug (%) ([6]; 15 min): 97%; Human Plasma Prodrug (%) ([6]; 30 min): 99%; Human Plasma Prodrug (%) ([6]; 60 min): 94%; Human Plasma Prodrug (%) ([6]; 120 min): 81%; Human Plasma Prodrug (%) ([6]; 240 min): 38%
COc1ccc([C@@]23CCC(OC(=O)c4cccc(C)c4C)=C[C@@H]2N(C)CC3)cc1OC [Compound 373, (3aS,7aS)-3a-(3,4-dimethoxyphenyl)-1-methyl-2,3,3a,4,5,7a-hexahydro-1H-indol-6-yl 2,3-dimethylbenzoate]													100.0	81.0	58.4	26.8	5.2	1.3	100.0	96.3	Human Plasma Prodrug (%) ([4]; 30 min): >99%; Human Plasma Prodrug (%) ([4]; 60 min): 94.8%; Human Plasma Prodrug (%) ([4]; 120 min): 89.9%; Human Plasma Prodrug (%) ([4]; 240 min): 96.3%; Mouse Plasma Prodrug (%) ([5]; 0.0 min): 100%; Mouse Plasma Prodrug (%) ([5]; 15 min): 82%; Mouse Plasma Prodrug (%) ([5]; 30 min): 64%; Mouse Plasma Prodrug (%) ([5]; 60 min): 41%; Mouse Plasma Prodrug (%) ([5]; 120 min): 12%; Mouse Plasma Prodrug (%) ([5]; 240 min): 1%; Human Plasma Prodrug (%) ([6]; 0.0 min): 100%
COc1ccc([C@@]23CCC(OC(=O)c4cccc(C)c4)=C[C@@H]2N(C)CC3)cc1OC [Compound 374, (3aS,7aS)-3a-(3,4-dimethoxyphenyl)-1-methyl-2,3,3a,4,5,7a-hexahydro-1H-indol-6-yl 3-methylbenzoate]													100.0	9.7	0.3	0.1	0.0	0.0	100.0	>99	Human Plasma Prodrug (%) ([4]; 30 min): >99%; Human Plasma Prodrug (%) ([4]; 60 min): >99%; Human Plasma Prodrug (%) ([4]; 120 min): >99%; Human Plasma Prodrug (%) ([4]; 240 min): 95.4%; Mouse Plasma Prodrug (%) ([5]; 0.0 min): 100%; Mouse Plasma Prodrug (%) ([5]; 15 min): 33%; Mouse Plasma Prodrug (%) ([5]; 30 min): 4%; Mouse Plasma Prodrug (%) ([5]; 60 min): 0%; Mouse Plasma Prodrug (%) ([5]; 120 min): 0%; Mouse Plasma Prodrug (%) ([5]; 240 min): 0%; Human Plasma Prodrug (%) ([6]; 0.0 min): 100%; Human Plasma Prodrug (%) ([6]; 15 min): 98%; Human Plasma Prodrug (%) ([6]; 30 min): 88%; Human Plasma Prodrug (%) ([6]; 60 min): 84%; Human Plasma Prodrug (%) ([6]; 120 min): 62%; Human Plasma Prodrug (%) ([6]; 240 min): 11%
